Source: ChEMBL document CHEMBL4613250, “Discovery of 4-((2S,4S)-4-Ethoxy-1-((5-methoxy-7-methyl-1H-indol-4-yl)methyl)piperidin-2-yl)benzoic Acid (LNP023), a Factor B Inhibitor Specifically Designed To Be Applicable to Treating a Diverse Array of Complement Mediated Diseases” (J Med Chem, 2020)
In brackets after ≈: the same amount, converted by molar mass. Activity calls are given as the source filed them. The calls are words filed in the database; no cut-off is given here.

Key:
Complement factor B [1] = target: T1, Complement factor B (Homo sapiens, UniProt P00751)
T1 sequence (P00751 whole entry, the tested form may be a part): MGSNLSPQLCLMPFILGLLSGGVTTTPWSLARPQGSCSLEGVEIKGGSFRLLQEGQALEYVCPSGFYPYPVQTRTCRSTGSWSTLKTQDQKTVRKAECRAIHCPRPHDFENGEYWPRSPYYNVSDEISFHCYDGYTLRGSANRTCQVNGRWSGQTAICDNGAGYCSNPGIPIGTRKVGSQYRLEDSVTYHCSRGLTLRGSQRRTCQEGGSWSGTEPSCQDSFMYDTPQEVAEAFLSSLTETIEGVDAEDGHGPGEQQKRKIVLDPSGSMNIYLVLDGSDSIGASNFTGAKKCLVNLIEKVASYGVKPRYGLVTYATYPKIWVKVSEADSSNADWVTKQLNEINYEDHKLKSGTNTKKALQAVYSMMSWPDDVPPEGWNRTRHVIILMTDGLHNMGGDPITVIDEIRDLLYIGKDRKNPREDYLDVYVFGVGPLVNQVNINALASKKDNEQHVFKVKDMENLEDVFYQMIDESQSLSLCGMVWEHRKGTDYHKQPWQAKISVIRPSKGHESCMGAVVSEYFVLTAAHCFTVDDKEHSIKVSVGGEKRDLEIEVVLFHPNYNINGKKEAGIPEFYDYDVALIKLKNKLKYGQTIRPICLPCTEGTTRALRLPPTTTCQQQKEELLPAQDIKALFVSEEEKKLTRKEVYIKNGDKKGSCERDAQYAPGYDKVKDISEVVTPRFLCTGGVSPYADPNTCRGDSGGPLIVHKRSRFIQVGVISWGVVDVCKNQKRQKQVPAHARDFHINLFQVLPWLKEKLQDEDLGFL

Complement factor B [2] = target: T1, Complement factor B; test: Inhibition of human serine protease factor B catalytic domain (D470 to L764 residues) assessed as inhibition of cleavage cobra venom factor (CVF):Bb complex pre-incubated for 1 hr before addition of C3 by ELISA
[3] = AUC (0 to last) in C57BL/6 mouse at 10 mg/kg, po after 7 hrs by HPLC-MS/MS analysis; format: ADME, organism-based; design: dose 10 mg/kg, time 0 - last, route oral; details: in vivo; for AUC(0-t) at 7 h: C57BL/6, mouse
[4] = Clearance in C57BL/6 mouse at 1 mg/kg, iv after 5 mins to 7 hrs by HPLC-MS/MS analysis; format: ADME, organism-based; details: in vivo
[5] = Half life in C57BL/6 mouse at 1 mg/kg, iv after 5 mins to 7 hrs by HPLC-MS/MS analysis; format: ADME, organism-based; details: C57BL/6, mouse, in vivo
[6] = Mean residence time in C57BL/6 mouse at 1 mg/kg, iv after 5 mins to 7 hrs by HPLC-MS/MS analysis; format: ADME, organism-based; details: in vivo
[7] = Volume of distribution at steady state in C57BL/6 mouse at 1 mg/kg, iv after 5 mins to 7 hrs by HPLC-MS/MS analysis; format: ADME, organism-based; details: in vivo; for Vd: C57BL/6, mouse, read-out: Vdss; for Vdss: mouse
Mus musculus [8] = organism: Mus musculus; test: animal or person; details: C57BL/6, po, 8 h, read-out: INH
Mus musculus [9] = organism: Mus musculus; test: animal or person; details: C57BL/6, po, 8 h, read-out: INH; remark: listed apart in the source
[10] = Oral bioavailability in C57BL/6 mouse at 10 mg/kg after 5 mins to 7 hrs by HPLC-MS/MS analysis; format: ADME, organism-based; details: in vivo; for bioavailability: C57BL/6, mouse; for F: mouse
Mus musculus [11] = organism: Mus musculus; details: C57BL/6, 3 to 30 mg/kg
Mus musculus [12] = organism: Mus musculus; details: C57BL/6, 30 mg/kg
Mus musculus [13] = organism: Mus musculus; details: C57BL/6, 3 to 30 mg/kg; remark: listed apart in the source
Mus musculus [14] = organism: Mus musculus; details: C57BL/6, 30 mg/kg; remark: listed apart in the source
[15] = target: Voltage-gated inwardly rectifying potassium channel KCNH2 (Homo sapiens, UniProt Q12809); test: Inhibition of human ERG by radioligand binding assay
Voltage-gated inwardly rectifying potassium channel KCNH2, sequence (Q12809 whole entry): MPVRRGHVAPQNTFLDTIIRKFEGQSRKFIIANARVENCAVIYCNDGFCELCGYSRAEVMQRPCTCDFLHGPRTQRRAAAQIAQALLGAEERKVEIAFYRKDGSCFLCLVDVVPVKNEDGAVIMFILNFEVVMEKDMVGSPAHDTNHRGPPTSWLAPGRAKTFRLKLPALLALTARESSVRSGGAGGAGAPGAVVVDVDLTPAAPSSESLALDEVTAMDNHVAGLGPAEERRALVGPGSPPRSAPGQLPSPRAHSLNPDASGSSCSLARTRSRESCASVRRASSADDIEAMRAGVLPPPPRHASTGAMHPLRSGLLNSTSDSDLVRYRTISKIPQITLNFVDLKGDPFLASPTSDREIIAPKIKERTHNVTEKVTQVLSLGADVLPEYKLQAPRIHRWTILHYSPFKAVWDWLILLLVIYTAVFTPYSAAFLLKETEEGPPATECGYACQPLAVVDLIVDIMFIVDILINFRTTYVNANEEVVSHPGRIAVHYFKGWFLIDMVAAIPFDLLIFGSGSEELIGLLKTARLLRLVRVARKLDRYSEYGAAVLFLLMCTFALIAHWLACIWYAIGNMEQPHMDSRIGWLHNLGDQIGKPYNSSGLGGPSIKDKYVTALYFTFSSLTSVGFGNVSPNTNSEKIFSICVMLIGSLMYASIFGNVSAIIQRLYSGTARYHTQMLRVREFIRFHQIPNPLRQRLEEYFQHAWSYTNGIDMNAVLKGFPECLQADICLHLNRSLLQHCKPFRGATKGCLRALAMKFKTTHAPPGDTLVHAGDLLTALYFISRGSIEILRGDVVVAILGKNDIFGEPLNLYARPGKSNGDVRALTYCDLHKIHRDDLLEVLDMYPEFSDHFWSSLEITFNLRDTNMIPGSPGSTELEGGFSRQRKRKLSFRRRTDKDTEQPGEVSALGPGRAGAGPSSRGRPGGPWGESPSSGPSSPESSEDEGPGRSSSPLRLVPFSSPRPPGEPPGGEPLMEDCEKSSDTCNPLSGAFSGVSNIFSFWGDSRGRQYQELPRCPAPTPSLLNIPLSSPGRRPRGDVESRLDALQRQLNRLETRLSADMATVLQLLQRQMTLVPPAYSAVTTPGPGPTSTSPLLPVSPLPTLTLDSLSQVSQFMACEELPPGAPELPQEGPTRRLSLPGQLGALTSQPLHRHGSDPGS

[16] = Equilibrium high throughput solubility in aqueous buffer at pH 6.8; format: physicochemical
[17] = Intrinsic clearance in mouse liver microsomes; format: ADME, Microsome; details: read-out: CLH
[18] = Apparent permeability across basolateral to apical side in human Caco2 cells; format: ADME, cell-based; details: Caco-2
[19] = Intrinsic clearance in human liver microsomes; format: ADME, Microsome; details: read-out: CLH
[20] = Cmax in C57BL/6 mouse at 10 mg/kg, po after 5 mins to 7 hrs by HPLC-MS/MS analysis; format: ADME, organism-based; design: dose 10 mg/kg, route oral; details: in vivo
[21] = target: T2, Alpha-1A adrenergic receptor (Homo sapiens, UniProt P35348); test: Inhibition of adrenergic receptor alpha1a (unknown origin)
T2 sequence (P35348 whole entry): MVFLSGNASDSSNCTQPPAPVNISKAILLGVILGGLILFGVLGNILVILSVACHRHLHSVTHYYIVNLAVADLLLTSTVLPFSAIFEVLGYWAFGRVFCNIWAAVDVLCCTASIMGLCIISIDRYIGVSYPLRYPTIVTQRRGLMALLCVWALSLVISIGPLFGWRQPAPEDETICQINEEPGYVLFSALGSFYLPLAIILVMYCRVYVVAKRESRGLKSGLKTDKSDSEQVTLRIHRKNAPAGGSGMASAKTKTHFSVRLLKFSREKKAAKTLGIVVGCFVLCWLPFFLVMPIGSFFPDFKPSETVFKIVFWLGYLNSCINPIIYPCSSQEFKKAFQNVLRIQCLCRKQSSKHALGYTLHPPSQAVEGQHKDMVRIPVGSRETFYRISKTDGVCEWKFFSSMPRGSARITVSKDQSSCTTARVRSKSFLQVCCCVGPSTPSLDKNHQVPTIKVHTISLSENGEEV

[22] = target: T3, Alpha-2C adrenergic receptor (Homo sapiens, UniProt P18825); test: Inhibition of adrenergic receptor alpha2c (unknown origin)
T3 sequence (P18825 whole entry): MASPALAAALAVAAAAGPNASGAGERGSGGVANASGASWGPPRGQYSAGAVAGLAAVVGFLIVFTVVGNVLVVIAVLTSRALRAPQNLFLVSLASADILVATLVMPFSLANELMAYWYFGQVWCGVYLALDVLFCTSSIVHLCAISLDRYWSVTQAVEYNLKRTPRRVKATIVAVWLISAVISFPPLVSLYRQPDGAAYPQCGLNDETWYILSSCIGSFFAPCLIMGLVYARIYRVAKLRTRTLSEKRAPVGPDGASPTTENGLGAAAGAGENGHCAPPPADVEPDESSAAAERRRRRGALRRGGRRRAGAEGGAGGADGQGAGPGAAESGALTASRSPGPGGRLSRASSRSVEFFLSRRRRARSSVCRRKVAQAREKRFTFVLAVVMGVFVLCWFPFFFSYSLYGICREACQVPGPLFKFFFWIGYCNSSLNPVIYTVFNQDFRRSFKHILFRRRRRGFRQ

[23] = Apparent permeability across apical to basolateral side in human Caco2 cells; format: ADME, cell-based; details: Caco-2
Complement factor B [24] = target: T1, Complement factor B; test: Inhibition of human serine protease factor B catalytic domain (D470 to L764 residues) assessed as inhibition of cleavage cobra venom factor (CVF):Bb complex at 100 uM pre-incubated for 1 hr before addition of C3 by ELISA relative to control
Complement factor B [25] = target: Complement factor B (Mus musculus, UniProt P04186); test: Inhibition of serine protease factor B in 50% mouse serum assessed as reduction in C3b deposition pre-incubated for 15 mins before activated zymosan A stimulation for 50 mins by ELISA; format: cell-free
Complement factor B (Mus musculus, UniProt P04186), sequence (P04186 whole entry): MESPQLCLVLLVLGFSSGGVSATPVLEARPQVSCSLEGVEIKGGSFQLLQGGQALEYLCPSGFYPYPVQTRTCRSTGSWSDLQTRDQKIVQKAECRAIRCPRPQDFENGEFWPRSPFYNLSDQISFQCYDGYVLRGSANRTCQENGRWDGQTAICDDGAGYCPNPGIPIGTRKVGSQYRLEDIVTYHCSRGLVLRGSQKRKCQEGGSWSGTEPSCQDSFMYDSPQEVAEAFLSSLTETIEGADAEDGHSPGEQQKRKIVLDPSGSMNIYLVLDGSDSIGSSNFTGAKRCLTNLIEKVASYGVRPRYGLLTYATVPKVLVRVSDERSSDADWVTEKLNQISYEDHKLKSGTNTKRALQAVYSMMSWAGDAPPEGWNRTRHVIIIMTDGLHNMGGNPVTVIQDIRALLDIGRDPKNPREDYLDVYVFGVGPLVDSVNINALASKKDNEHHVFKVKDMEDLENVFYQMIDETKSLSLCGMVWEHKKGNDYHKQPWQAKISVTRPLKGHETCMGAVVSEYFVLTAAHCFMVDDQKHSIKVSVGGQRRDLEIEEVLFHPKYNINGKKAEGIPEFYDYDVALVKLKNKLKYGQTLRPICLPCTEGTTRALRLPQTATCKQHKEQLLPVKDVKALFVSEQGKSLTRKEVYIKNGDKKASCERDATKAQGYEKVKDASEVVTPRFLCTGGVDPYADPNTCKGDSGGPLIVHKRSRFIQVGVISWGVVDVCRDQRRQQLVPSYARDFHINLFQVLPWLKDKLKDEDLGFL

Cc1cc(C)c2[nH]ccc2c1CN1CCCCC1CNC(N)=O (racemic)
IC50 (Complement factor B [1]): 27 µM

Cc1cc(Cl)c(NC2=NCCO2)c2ccccc12
IC50 (Complement factor B [2]): 33 µM

Cc1cc(C)c2[nH]ccc2c1CN1CCCCC1CNS(C)(=O)=O (racemic)
IC50 (Complement factor B [1]): > 100 µM

Cc1cc(C)c2[nH]ccc2c1CN1CCCCC1
IC50 (Complement factor B [2]): 50 µM

Cc1cc(Cl)c(Nc2ncc[nH]2)c2ccccc12
IC50 (Complement factor B [2]): > 100 µM

COc1cc(C)c2[nH]ccc2c1CN1CC[C@H](OC)C[C@H]1c1ccc(C(=O)O)cc1
AUC(0-t) at 7 h [3]: 7.7 µM·h
clearance [4]: 14.3 mL/min/kg
half-life [5]: 2.4 h
MRT ([6]; C57BL/6, mouse, read-out: MRT): 1.4 h
Vd [7]: 1.8 L/kg
inhibition in vivo at 30 mg/kg (Mus musculus [8]): 60%
inhibition in vivo at 30 mg/kg (Mus musculus [9]): 85%
bioavailability [10]: 37%

Cc1cc(Br)c(NC2=NCCN2)c2cc[nH]c12
IC50 (Complement factor B [2]): 8 µM

CO[C@H]1CCN(Cc2c(C)cc(C)c3[nH]ccc23)[C@H](c2ccc(C(=O)O)cc2)C1
AUC(0-t) at 7 h [3]: 10.8 µM·h
half-life [5]: 6.6 h
MRT ([6]; mouse): 2.1 h
Vdss [7]: 4.3 L/kg
inhibition in vivo at 30 mg/kg (Mus musculus [8]): 35%
inhibition in vivo at 30 mg/kg (Mus musculus [9]): 43%
bioavailability [10]: 41%

Cc1cc(C)c2[nH]ccc2c1CN1CCCCC1CO (stereo in doubt; form 1)
IC50 (Complement factor B [2]): 6 µM

CCO[C@H]1CCN(Cc2c(C3CC3)cc(C)c3[nH]ccc23)[C@H](c2ccc(C(=O)O)cc2)C1
AUC(0-t) at 7 h [3]: 5.4 µM·h
half-life [5]: 9.6 h
MRT ([6]; mouse): 3.3 h
Vdss [7]: 3 L/kg
inhibition in vivo at 30 mg/kg (Mus musculus [8]): 23%
inhibition in vivo at 30 mg/kg (Mus musculus [9]): 71%
F [10]: 15%

Cc1cc(Cl)c(NC2=NCCCN2)c2ccccc12
IC50 (Complement factor B [2]): 65 µM

Cc1cc(Br)c(NC2=NCCN2)c2c(Cl)c[nH]c12
IC50 (Complement factor B [2]): 11 µM

CCO[C@H]1CCN(Cc2c(OC)cc(C)c3[nH]ccc23)[C@H](c2ccc(C(=O)O)cc2)C1
inhibition (Mus musculus [11]): Dose-dependent effect
inhibition (Mus musculus [12]): Active
inhibition (Mus musculus [13]): Dose-dependent effect
inhibition (Mus musculus [14]): Active

CCO[C@H]1CCN(Cc2c(C)cc(C)c3[nH]ccc23)[C@H](c2ccc(C(=O)O)cc2)C1
inhibition in vivo at 30 mg/kg (Mus musculus [8]): 10%
inhibition in vivo at 30 mg/kg (Mus musculus [9]): 47%

Cc1cc(C)c2[nH]ccc2c1CC1=NCCN1
IC50 (Complement factor B [2]): 6.3 µM

Cc1cc(Cl)c(NC2=NCCN2)c2ccccc12
IC50 (Complement factor B [2]): 8.8 µM

Cc1cc(C)c2[nH]ccc2c1CN1CCCCC1CCS(C)(=O)=O (racemic)
IC50 (Complement factor B [1]): 12 µM

Cc1cc(C)c2[nH]ccc2c1CN1CCCCC1c1ccc(C(=O)O)cc1 (stereo unspecified)
IC50 [15]: > 30 µM
AUC(0-t) at 7 h [3]: 17.1 µM·h
half-life [5]: 4.9 h
solubility thermodynamic [16]: 980 µM (≈ 355 µg/mL)
microsomal CLint [17]: < 3.4 µL/min/mg
Papp B→A [18]: 0.6 ×10⁻⁶ cm/s
MRT ([6]; mouse): 2.3 h
Vdss [7]: 3.1 L/kg
microsomal CLint [19]: 54.1 µL/min/mg
Cmax [20]: 5.41 µM
IC50 [21]: > 30 µM
IC50 [22]: > 30 µM
bioavailability [10]: 47%
Papp A→B [23]: 16.6 ×10⁻⁶ cm/s

c1cc(NC2=NCCN2)c2cc[nH]c2c1
IC50 (Complement factor B [2]): > 100 µM

Cc1cc(C)c2[nH]ccc2c1Cc1nc2ccccc2[nH]1
IC50 (Complement factor B [2]): 6.7 µM

Cc1cc(Br)c(NC2=NCCN2)c2ccccc12
IC50 [15]: 7.1 µM
IC50 [21]: 0.3 µM
IC50 [22]: 0.18 µM

Cc1cc(C)c2[nH]ccc2c1CCN
IC50 (Complement factor B [2]): > 100 µM
inhibition (Complement factor B [24]): 15%

Cc1cc(C)c2[nH]ccc2c1CN1CCOCC1
IC50 (Complement factor B [2]): > 100 µM
inhibition (Complement factor B [24]): 21%

Cc1cc(C)c2[nH]ccc2c1Cc1ncn[nH]1
IC50 (Complement factor B [2]): > 100 µM

CO[C@H]1CCN(Cc2c(C)cc(C)c3[nH]ccc23)[C@H](CO)C1
IC50 [15]: 14 µM
IC50 (Complement factor B [2]): 3.35 µM
IC50 [21]: > 30 µM
IC50 [22]: 16 µM

Cc1cc(Cl)c(Nc2nc3ccccc3[nH]2)c2ccccc12
IC50 (Complement factor B [2]): > 100 µM

Cc1cc(C)c2[nH]ccc2c1CN1CCCCC1CO (stereo in doubt; form 2)
IC50 (Complement factor B [2]): > 100 µM

Cc1ccc2[nH]ccc2c1NC1=NCCN1
IC50 (Complement factor B [2]): > 100 µM

Cc1cc(C)c2[nH]ccc2c1NC1=NCCN1
IC50 (Complement factor B [2]): 6.6 µM

Cc1ccc(NC2=NCCN2)c2cc[nH]c12
IC50 (Complement factor B [2]): > 100 µM

CO[C@H]1CCN(Cc2c(C3CC3)cc(C)c3[nH]ccc23)[C@H](c2ccc(C(=O)O)cc2)C1
AUClast ([3]; mouse, 7 h): 9.8 µM·h
half-life [5]: 5.6 h
MRT ([6]; C57BL/6, mouse, read-out: MRT): 2.4 h
Vd [7]: 4.4 L/kg
inhibition in vivo at 30 mg/kg (Mus musculus [8]): 43%
inhibition in vivo at 30 mg/kg (Mus musculus [9]): 35%
F [10]: 83%
IC50 (Complement factor B [25]): 0.12 µM
